Test results reported in patent US9434714B2, “Pyrimidine imidazole amines as modulators of kinase activity” (Merck Patent GmbH, priority 2014, dated 2016).

Tests used:
P70S6K (T412E mutant) = target: T1, P70S6K (T412E mutant) (Homo sapiens, UniProt P23443, T412E); test: P70S6K enzyme assay; format: biochemical; conditions: 24 μM ATP, 90 min at 25° C., mobility shift (Caliper)
T1 construct: purchased Millipore
Experimental: P70S6K inhibitor compounds were diluted and plated in 96 well plates. A reaction mixture including the following components was then added to the compound plate to initiate the enzyme reaction; P70S6K (3 nM, T412E mutant, Millipore) was mixed with 24 μM ATP in an assay buffer containing 100 mM Hepes (pH 7.5), 5 mM MgCl2, 1 mM DTT, 0.015% Brij and 1 μM of the substrate peptide FITC-AHA-AKRRRLSSLRA-OH (derived from the S6 ribosomal protein sequence, FITC=fluorescein isothiocyanate, AHA=6-aminohexanoic acid). The reaction was incubated for 90 min at 25° C., before the addition of 10 mM EDTA to stop the reaction. The proportion of substrate and product (phosphorylated) peptide was analysed on a Caliper Life Sciences Lab Chip 3000, using a pressure of −1.4 psi, and upstream and downstream voltages of −3000 and −700 respectively. Product peaks were resolved before substrate peaks on the resulting chromatograms.

His-AKT (Full Length) = target: T2, His-AKT (Full Length) (Homo sapiens, UniProt P31749); test: AKT enzyme assay; format: biochemical; conditions: 160 uM ATP, 90 min at 25 C, off-chip mobility shift (Caliper)
T2 construct: His-AKT (Full Length); His; purchased Invitrogen P2999
Experimental: A TTP Mosquito liquid handling instrument was used to place 125 nl of the appropriate concentration of inhibitor in 100% DMSO (for a dose response curve calculation) into each well of a 384-well plate. To this reaction components were added to a final volume of 12.5 μl: • 0.1 ng/μ1 His-AKT (Full Length), (Invitrogen, Part # P2999, Lot #641228C). • 160 uM ATP (Fluka, 02055) • 1 mM DTT (Sigma, D0632) • 1 mM MgCl2 (Sigma, M1028) • 1 μM substrate peptide (sequence FITC-AHA-GRPRTSSFAEG-NH2), synthesized by Tufts Peptide Synthesis service. • 100 mM HEPES pH 7.5 (Calbiochem, 391338) • 0.015% Brij-35 (Sigma, B4184)
The reaction was incubated for 90 min at 25 C, and then stopped by the addition of 70 μl of Stop buffer (100 mM HEPES pH 7.5, 0.015% Brij-35, 10 mM EDTA (Sigma, E7889)).
The plate was read on a Caliper LC 3000 in an Off-Chip mobility shift assay format, using the following parameters for a 12-sipper chip: screening pressure—2.3 psi, upstream voltage—500, and downstream voltage—3000. These conditions cause unphosphorylated substrate and phosphorylated product peptide to resolve as separate peaks allowing direct measurement of percentage of conversion of substrate to product. The percent conversion was plotted against concentration of inhibitor to produce a sigmoidal dose response curve, from which an IC50 was calculated.

T1 sequence (P23443 whole entry T412E): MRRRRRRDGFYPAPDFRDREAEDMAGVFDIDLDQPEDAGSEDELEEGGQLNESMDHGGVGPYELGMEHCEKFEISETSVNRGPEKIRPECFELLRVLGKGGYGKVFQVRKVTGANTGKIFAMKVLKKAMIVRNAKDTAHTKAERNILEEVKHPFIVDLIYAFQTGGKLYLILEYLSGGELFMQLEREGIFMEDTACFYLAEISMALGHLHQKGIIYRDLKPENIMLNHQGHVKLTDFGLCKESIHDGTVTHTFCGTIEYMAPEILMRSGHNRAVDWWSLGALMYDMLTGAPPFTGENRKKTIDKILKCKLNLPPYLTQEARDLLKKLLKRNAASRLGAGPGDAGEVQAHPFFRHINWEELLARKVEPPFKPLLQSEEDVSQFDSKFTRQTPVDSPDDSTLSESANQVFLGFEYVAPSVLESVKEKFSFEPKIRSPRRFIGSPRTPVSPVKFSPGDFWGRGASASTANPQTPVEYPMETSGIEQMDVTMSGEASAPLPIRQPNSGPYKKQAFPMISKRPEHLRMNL
T2 sequence (P31749 whole entry): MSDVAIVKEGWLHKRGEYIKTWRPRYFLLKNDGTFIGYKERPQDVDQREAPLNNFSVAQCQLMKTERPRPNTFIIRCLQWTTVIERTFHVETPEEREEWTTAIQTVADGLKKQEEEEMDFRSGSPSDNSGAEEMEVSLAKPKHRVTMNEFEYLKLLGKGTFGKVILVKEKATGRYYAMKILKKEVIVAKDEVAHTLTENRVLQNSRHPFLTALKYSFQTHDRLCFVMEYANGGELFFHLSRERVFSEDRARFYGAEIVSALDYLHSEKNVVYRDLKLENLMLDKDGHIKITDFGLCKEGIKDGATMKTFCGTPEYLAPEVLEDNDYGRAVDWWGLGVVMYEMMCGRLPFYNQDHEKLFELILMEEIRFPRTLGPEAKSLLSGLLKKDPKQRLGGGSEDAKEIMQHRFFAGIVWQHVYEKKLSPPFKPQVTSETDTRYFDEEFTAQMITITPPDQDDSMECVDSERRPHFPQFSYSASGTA

| SMILES | IC50 (P70S6K (T412E mutant)) [nM] | IC50 (His-AKT (Full Length)) [nM] |
| --- | --- | --- |
| CN(C)CCn1cc(-c2ccnc(C(F)(F)F)c2)nc1C1CCN(c2ncnc(N)c2Cl)CC1 [Compound 24] | < 3 | 3 to 15 |
| Cc1cc(-c2cn(CC3CN(C)C3)c(C3CCN(c4ncnc(N)c4Cl)CC3)n2)ccc1F [Compound 6, 5-Chloro-6-{4-[4-(4-fluoro-3-methyl-phenyl)-1-(1-methyl-azetidin-3-ylmethyl)-1H-imidazol-2-yl]-piperidin-1-yl}-pyrimidin-4-ylamine] | 3 to 15 | 3 to 15 |
| CC(C)c1cc(-c2cn(CCN3CCC3)c(C3CCN(c4ncnc(N)c4-c4ccccc4)CC3)n2)ccn1 [Compound 18, 6-{4-[1-(2-Azetidin-1-yl-ethyl)-4-(2-isopropyl-pyridin-4-yl)-1H-imidazol-2-yl]-piperidin-1-yl}-5-phenyl-pyrimidin-4-ylamine] | < 3 | > 15 |
| CC(C)c1cc(-c2cn(CCN3CCC3)c(C3CCN(c4ncnc(N)c4-c4ccncc4)CC3)n2)ccn1 [Compound 13, 6-{4-[1-(2-Azetidin-1-yl-ethyl)-4-(2-isopropyl-pyridin-4-yl)-1H-imidazol-2-yl}-piperidin-1-yl]-5-Pyridin-4-yl-pyrimidin-4-ylamine] | 3 to 15 | > 15 |
| CC(C)c1cc(-c2cn(CCN3CCC3)c(C3CCN(c4ncnc(N)c4C(C)C)CC3)n2)ccn1 [Compound 3, 6-{4-[1-(2-Azetidin-1-yl-ethyl)-4-(2-isopropyl-pyridin-4-yl)-1H-imidazol-2-yl]-piperidin-1-yl}-5-isopropyl-pyrimidin-4-ylamine] | 3 to 15 | 3 to 15 |
| CC(C)Oc1c(N)ncnc1N1CCC(c2nc(-c3ccnc(C(F)(F)F)c3)cn2CCN(C)C)CC1 [Compound 28] | 3 to 15 | 3 to 15 |
| Cc1cc(-c2cn(CCNCCCCl)c(C3CCN(c4ncnc(N)c4C(C)C)CC3)n2)ccc1F [Compound 32, 6-{4-[1-[2-(3-Chloro-propylamino)-ethyl]-4-(4-fluoro-3-methyl-phenyl)-1H-imidazol-2-yl]-piperidin-1-yl}-5-isopropyl-pyrimidin-4-ylamine] | < 3 | 3 to 15 |
| CCNCCn1cc(-c2ccc(F)c(C(F)(F)F)c2)nc1C1CCN(c2ncnc(N)c2C(C)C)CC1 [Compound 31, 6-{4-[1-(2-Ethylamino-ethyl)-4-(4-fluoro-3-trifluoromethyl-phenyl)-1H-imidazol-2-yl]-piperidin-1-yl}-5-isopropyl-pyrimidin-4-ylamine] | 3 to 15 | 3 to 15 |
| CC(C)c1cc(-c2cn(CCN3CCC3)c(C3CCN(c4ncnc(N)c4OCC(F)(F)F)CC3)n2)ccn1 [Compound 14, 6-{4-[1-(2-Azetidin-1-yl-ethyl)-4-(2-isopropyl-pyridin-4-yl)-1H-imidazol-2-yl}-piperidin-1-yl]-5-(2,2,2-trifluoro-ethoxy)-Pyrimidin-4-ylamine] | 3 to 15 | 3 to 15 |
| Cc1cc(-c2cn(CCN3CCC3)c(C3CCN(c4ncnc(N)c4C4CC4)CC3)n2)ccc1F [Compound 16, 6-{4-[1-(2-Azetidin-1-yl-ethyl)-4-(4-fluoro-3-methyl-phenyl)-1H-imidazol-2-yl]-piperidin-1-yl}-5-cyclopropyl-pyrimidin-4-ylamine] | < 3 | < 3 |
| CC(C)c1c(N)ncnc1N1CCC(c2nc(-c3ccnc(C(F)(F)F)c3)cn2CCN2CCC2)CC1 [Compound 5, 6-{4-[1-(2-Azetidin-1-yl-ethyl)-4-(2-trifluoromethyl-pyridin-4-yl)-1H-imidazol-2-yl]-piperidin-1-yl}-5-isopropyl-pyrimidin-4-ylamine] | < 3 | 3 to 15 |
| CN(C)CCn1cc(-c2ccnc(C(F)(F)F)c2)nc1C1CCN(c2ncnc(N)c2Br)CC1 [Compound 25] | < 3 | < 3 |
| Cc1cc(-c2cn(CCN3CCC3)c(C3CCN(c4ncnc(N)c4-c4ccn[nH]4)CC3)n2)ccc1F [Compound 7, 6-{4-[1-(2-Azetidin-1-yl-ethyl)-4-(4-fluoro-3-methyl-phenyl)-1H-imidazol-2-yl]-piperidin-1-yl}-5-(2H-pyrazol-3-yl)-pyrimidin-4-ylamine] | 3 to 15 | 3 to 15 |
| CCOc1c(N)ncnc1N1CCC(c2nc(-c3ccnc(C(C)C)c3)cn2CCN2CCC2)CC1 [Compound 10, 6-{4-[1-(2-Azetidin-1-yl-ethyl)-4-(2-isopropyl-pyridin-4-yl)-1H-imidazol-2-yl]-piperidin-1-yl}-5-ethoxy-pyrimidin-4-ylamine] | 3 to 15 | 3 to 15 |
| Cc1cc(-c2cn(CCN3CCC3)c(C3CCN(c4ncnc(N)c4-c4cccnc4)CC3)n2)ccc1F [Compound 9, 6-{4-[1-(2-Azetidin-1-yl-ethyl)-4-(4-fluoro-3-methyl-phenyl)-1H-imidazol-2-yl]-piperidin-1-yl}-5-pyridin-3-yl-pyrimidin-4-ylamine] | 3 to 15 | 3 to 15 |
| CN(C)CCn1cc(-c2ccnc(C(F)(F)F)c2)nc1C1CCN(c2ncnc(N)c2C#N)CC1 [Compound 29] | < 3 | 3 to 15 |
| CCOc1c(N)ncnc1N1CCC(c2nc(-c3ccc(F)c(Cl)c3)cn2CCN(C)C)CC1 [Compound 20] | < 3 | 3 to 15 |
| Cc1cc(-c2cn(CCN(C)C)c(C3CCN(c4ncnc(N)c4Br)CC3)n2)ccc1F [Compound 21] | < 3 | < 3 |
| CN(C)CCn1cc(-c2ccc(F)c(C(F)(F)F)c2)nc1C1CCN(c2ncnc(N)c2Cl)CC1 [Compound 23] | < 3 | 3 to 15 |
| CN(C)CCn1cc(-c2ccnc(C(F)(F)F)c2)nc1C1CCN(c2ncnc(N)c2C(N)=O)CC1 [Compound 30] | > 15 | > 15 |
| CC(C)Oc1c(N)ncnc1N1CCC(c2nc(-c3ccnc(C(C)C)c3)cn2CCN2CCC2)CC1 [Compound 12, 6-{4-[1-(2-Azetidin-1-yl-ethyl)-4-(2-isopropyl-pyridin-4-yl)-1H-imidazol-2-yl]-piperidin-1-yl}-5-isopropoxy-pyrimidin-4-ylamine] | 3 to 15 | 3 to 15 |
| Cc1cc(-c2cn(CCN3CCC3)c(C3CCN(c4ncnc(N)c4C(C)C)CC3)n2)ccc1F [Compound 4, 6-{4-[1-(2-Azetidin-1-yl-ethyl)-4-(4-fluoro-3-methyl-phenyl)-1H-imidazol-2-yl]-piperidin-1-yl}-5-isopropyl-pyrimidin-4-ylamine] | 3 to 15 | 3 to 15 |
| CCc1c(N)ncnc1N1CCC(c2nc(-c3ccc(F)c(C)c3)cn2CCN2CCC2)CC1 [Compound 1, 6-{4-[1-(2-Azetidin-1-yl-ethyl)-4-(4-fluoro-3-methyl-phenyl)-1H-imidazol-2-yl]-piperidin-1-yl}-5-ethyl-pyrimidin-4-ylamine] | < 3 | 3 to 15 |
| Cc1cc(-c2cn(CCN3CCC3)c(C3CCN(c4ncnc(N)c4-c4ccncc4)CC3)n2)ccc1F [Compound 8, 6-{4-[1-(2-Azetidin-1-yl-ethyl)-4-(4-fluoro-3-methyl-phenyl)-1H-imidazol-2-yl]-piperidin-1-yl}-5-pyridin-4-yl-pyrimidin-4-ylamine] | 3 to 15 | 3 to 15 |
| CC(C)c1cc(-c2cn(CCN3CCC3)c(C3CCN(c4ncnc(N)c4-c4cccnc4)CC3)n2)ccn1 [Compound 19, 6-{4-[1-(2-Azetidin-1-yl-ethyl)-4-(2-isopropyl-pyridin-4-yl)-1H-imidazol-2-yl]-piperidin-1-yl}-5-Pyridin-3-yl-pyrimidin-4-ylamine] | 3 to 15 | > 15 |
| CCOc1c(N)ncnc1N1CCC(c2nc(-c3ccnc(C(F)(F)F)c3)cn2CCN(C)C)CC1 [Compound 26] | 3 to 15 | 3 to 15 |
| CC(C)c1cc(-c2cn(CCN3CCC3)c(C3CCN(c4ncnc(N)c4C=O)CC3)n2)ccn1 [Compound 15, 4-Amino-6-{4-[1-(2-azetidin-1-yl-ethyl)-4-(2-isopropyl-pyridin-4-yl)-1H-imidazol-2-yl]-piperidin-1-yl}-pyrimidine-5-carbaldehyde] | < 3 | 3 to 15 |
| Cc1cc(-c2cn(CCN(C)C)c(C3CCN(c4ncnc(N)c4Cl)CC3)n2)ccc1F [Compound 22] | < 3 | < 3 |
